The record followed here is patent US20260315499A1, “2'- {HETEROCYCLYL (ARYL/ALKYL) METHYL} - CANNABIDIOL COMPOUNDS AND PROCESS FOR PREPARATION THEREOF” (COUNCIL OF SCIENTIFIC & INDUSTRIAL RESEARCH, priority 2023, published 2026).

One may read the viability as a read-out of living cells in per cent, often relative to untreated cells.

The subject of data set [1] is differentiated SHSY5Y cell cultures. As to the kind of experiment: Neuroprotective potential in differentiated SHSY5Y after 96 hrs, concentration series with and without corticosterone. The data set is classed as cell-based, human.
The subject of the next data set is depression mice model. As to the kind of experiment: In vivo corticosterone induced depression model: Forced Swim Test. Further details: species or system mouse (male C57). The procedure:
In vivo efficacy (ameliorates behavioral despair) of A1 in corticosterone induced model of stress (J. Neurochem., 2018 146, 722 734). […] A1 (20 mg/kg, oral) dissolved in normal saline was given for 3 consecutive weeks following corticosteroid stress. The sucrose preference test was employed, tail suspension test, and forced swim test to evaluate behavioral distress. We noticed that A1 can resurrect mice in stressful situations. […]
The forced swim test was employed to evaluate behavioral melancholy in depressed subjects. Each animal was individually conditioned in a glass cylinder 20 cm long, 10 cm deep and 14 cm radius of curvature. After being submerged in water for 5 mins, the mice's cumulative stationary episode, struggle in water, and eventual floating condition were evaluated. The duration for which the animals were motionless while attempting to hold both of their front limbs still was calculated by interpreting the visualizations portraying behavioral despair (Front Behav Neurosci., 2018, 12, 42).

With `C=C(C)[C@@H]1CCC(C)=C[C@H]1c1c(O)cc(CCCCC)c(CN2CCOCC2)c1O` [A1, 2′-(morpholin-1-ylmethyl)-cannabidiol], the “cell viability compared to positive control DHF (in words)” value in data set [1] (A1 alone 1.25, 2.5, 5, 10, 20 and 40 μM) is “no significant variation in cell viability when compared to positive control DHF”. The viability at 1.25 µM in data set [1] (Homo sapiens, SH-SY5Y, 96 h, A1 1.25 μM, without Cort) is 102%. Moreover, the viability at 2.5 µM in data set [1] (Homo sapiens, SH-SY5Y, 96 h, A1 2.5 μM, without Cort) came out at 108%. The viability at 5 µM came to 103% in data set [1] (Homo sapiens, SH-SY5Y, 96 h, A1 5 μM + Cort 400 μM, 96 hrs) and 108% in data set [1] (Homo sapiens, SH-SY5Y, 96 h, A1 5 μM, without Cort). The viability at 10 µM in data set [1] (Homo sapiens, SH-SY5Y, 96 h, A1 10 μM, without Cort) worked out at 117%. Moreover, the viability at 20 µM in data set [1] (Homo sapiens, SH-SY5Y, 96 h, A1 20 μM, without Cort) turned out to be 115%. For the same compound, the viability at 40 µM in data set [1] (Homo sapiens, SH-SY5Y, 96 h, A1 40 μM, without Cort) is 115%. Also, in data set [1] (concentrations as high as 40 μM, up to 96 hrs, with and without corticosterone), the “toxicity (in words)” value is listed as “non-toxic even at concentrations as high as 40 μM”. In addition, the “% Immobility (sec) ± SD (dead time)” value was determined as 17.67 ± 5.12 s in the data set with depression mice model (with Cort.) and 24.22 ± 5.30 s with depression mice model (without Cort.). Besides, the figures for the “% Latency to immobility (sec) ± SD” value in the data set on depression mice model (with Cort.) and in the data set with depression mice model (without Cort.) were 34.06 ± 14.03 s and 44.59 ± 19.55 s, respectively.
